This is an account of results in patent publication US20120264685A1 (priority 2009, published 2012).

One series has as its target DPP IV enzyme (Homo sapiens, UniProt P27487). Kind of series: Stability against DPP IV enzyme. The settings on record: 2 μM, 37° C.; for half-life: read-out: half-life (t1/2) with DPP-IV enzyme. The format is in vitro ADME.
The nature of series [1]: Stability in liver microsomes. The format is in vitro ADME, human. The following applies: 2 μM, 37° C.; for half-life: human, microsomes, read-out: half-life (t1/2) in liver microsomes. The protocol:
(§1) Reactions were terminated by the addition of TFA/H2O ([…], 10% (v/v)). […] The column was equilibrated with TFA/H20, at a flow rate of 1 mL/min. […] The absorbance was monitored at 206 nm using UV detector and peaks were collected manually prior to ESI-MS analysis.

Series [2] is described as follows: Stability in simulated gastric fluid. The format is in vitro ADME. The following applies: 2 μM, 37° C.; for % degradation in 24 h when incubated with simulated gastric fluid: pH 1.5, 24 h. On the procedure: as §1
Series [3] can be described thus: Stability in simulated intestinal fluid. The format is in vitro ADME. The following applies: 2 μM, 37° C.; for % degradation in 24 h when incubated with simulated intestinal fluid: pH 7.5, 24 h. The protocol:
as §1

Series [4] can be described thus: Stability in human plasma. The format is in vitro ADME. The settings on record: 2 μM, 37° C.; for half-life: human, plasma, read-out: half-life (t1/2) in human plasma.
In series [5] the test system is RIN5F (Rat Insulinoma) cells. The experiment in a line: In vitro glucose-dependent insulin secretion (RIN5F cell assay). The format is cell-based. The settings on record: 16.7-mM glucose load, n = 3, mean ± S.D. The gist of the method:
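Rat RIN5F cells were preincubated 40 min in Krebs-Ringer buffer with 1.1 mM glucose and 0.5% BSA, pH 7.4, then exposed to test peptidomimetics for 30 min at 37 °C with 16.7 mM or 0 mM glucose. Supernatant insulin was measured by rat insulin ELISA and normalised to total protein (BCA), as pg/μg.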

The next series addresses human GLP-1 receptor (human, UniProt P43220 24-463). The experiment in a line: cell-based or functional assay.

Where a SMILES comes first, the peptide text is derived from it. Where no end group is shown, it is not given here. [ ]: non-standard residue; d: D form. ξ: configuration not given here. ξαMeBip(2'-Et,4'-OMe) = CCc1cc(OC)ccc1-c1ccc(CC(C)(N)C(=O)O)cc1; Bip(2'-Et-4'-OMe) = CCc1cc(OC)ccc1-c1ccc(C[C@H](N)C(=O)O)cc1; ξαMePhe(2,6-F2) = CC(N)(Cc1c(F)cccc1F)C(=O)O; αMePhe(2-F) = C[C@](N)(Cc1ccccc1F)C(=O)O; ξαMe(hhPhe) = CC(N)(CCCc1ccccc1)C(=O)O; αMeD = C[C@](N)(CC(=O)O)C(=O)O; ξhhPhe = NC(CCCc1ccccc1)C(=O)O; ξαMeD = CC(N)(CC(=O)O)C(=O)O; αMeAPPA = not defined here; αMeS = C[C@](N)(CO)C(=O)O; Aib = CC(C)(N)C(=O)O

Sequence of DPP IV enzyme (P27487 whole entry, species assumed): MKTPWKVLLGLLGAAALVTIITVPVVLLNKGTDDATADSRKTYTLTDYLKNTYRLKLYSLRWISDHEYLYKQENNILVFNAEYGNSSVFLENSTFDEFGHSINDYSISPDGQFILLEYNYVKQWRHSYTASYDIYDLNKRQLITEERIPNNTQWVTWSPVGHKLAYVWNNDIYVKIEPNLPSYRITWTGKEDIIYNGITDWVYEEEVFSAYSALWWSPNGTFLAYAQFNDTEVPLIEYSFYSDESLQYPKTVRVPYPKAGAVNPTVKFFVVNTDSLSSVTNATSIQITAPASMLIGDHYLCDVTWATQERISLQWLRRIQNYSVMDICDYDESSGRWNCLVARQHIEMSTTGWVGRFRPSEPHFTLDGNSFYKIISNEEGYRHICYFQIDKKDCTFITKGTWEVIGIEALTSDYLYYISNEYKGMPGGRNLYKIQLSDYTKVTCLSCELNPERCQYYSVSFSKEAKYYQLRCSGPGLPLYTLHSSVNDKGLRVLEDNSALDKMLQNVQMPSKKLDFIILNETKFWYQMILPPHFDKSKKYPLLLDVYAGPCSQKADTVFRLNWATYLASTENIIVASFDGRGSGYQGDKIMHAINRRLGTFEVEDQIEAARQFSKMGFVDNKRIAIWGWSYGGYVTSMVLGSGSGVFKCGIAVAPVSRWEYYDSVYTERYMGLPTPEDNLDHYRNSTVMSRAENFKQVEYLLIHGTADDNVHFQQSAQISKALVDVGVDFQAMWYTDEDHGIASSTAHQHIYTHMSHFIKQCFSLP

On to `CCc1cc(OC)ccc1-c1ccc(CC(C)(NC(=O)C(C)(CC(=O)O)NC(=O)[C@H](CO)NC(=O)[C@@H](NC(=O)C(C)(Cc2c(F)cccc2F)NC(=O)[C@@H](NC(=O)CNC(=O)[C@H](CCC(=O)O)NC(=O)[C@H](CO)NC(=O)[C@H](Cc2c[nH]cn2)NC(=O)[C@@H](N)C(C)C)[C@@H](C)O)[C@@H](C)O)C(=O)NC(C)(CCCc2ccccc2)C(N)=O)cc1` (stereo partly drawn) [compound 201] (H-VHSEGT[ξαMePhe(2,6-F2)]TS[ξαMeD][ξαMeBip(2'-Et,4'-OMe)][ξαMe(hhPhe)]-NH2), for which, at DPP IV enzyme, the “% degradation in 24 h when incubated with DPP-IV enzyme” value was determined as 75%. Besides, the values for the half-life (at DPP IV enzyme; in series [1]; in series [4]) were 540 min, 60 min and 480 min, respectively. The “% degradation in 24 h when incubated with liver microsomes” value in series [1] is on record as 81%. Besides, the “half-life (t1/2) in simulated gastric fluid” value in series [2] (pH 1.5) is given as “(8) h”. Also, the “% degradation in 24 h when incubated with simulated gastric fluid” value in series [2] is given as 14%. Besides, in series [3] (pH 7.5), the “half-life (t1/2) in simulated intestinal fluid” value is “(6) h”. The “% degradation in 24 h when incubated with simulated intestinal fluid” value in series [3] is reported as 45%. The “% degradation in 24 h when incubated with human plasma” value in series [4] was 77%. The “Insulin secretion” value in series [5] (0.1 nM test compd.) amounted to 15.4 ± 0.14 pg/µg/h; in series [5] (1 nM test compd.) it was 21.2 ± 0.18 pg/µg/h; in series [5] (10 nM test compd.), 35.6 ± 0.17 pg/µg/h.
On to `CCc1cc(OC)ccc1-c1ccc(CC(C)(NC(=O)[C@H](CC(=O)O)NC(=O)[C@H](CO)NC(=O)[C@@H](NC(=O)[C@H](Cc2ccccc2)NC(=O)[C@@H](NC(=O)CNC(=O)[C@H](CCC(N)=O)NC(=O)[C@H](CO)NC(=O)[C@H](Cc2c[nH]cn2)NC(=O)[C@@H](NC(=O)[C@@H](N)C(C)C)C(C)C)[C@@H](C)O)[C@@H](C)O)C(=O)NC(CCCc2ccccc2)C(N)=O)cc1` (stereo partly drawn) [compound 205] (H-VVHSQGTFTSD[ξαMeBip(2'-Et,4'-OMe)][ξhhPhe]-NH2), for which the “% degradation in 24 h when incubated with DPP-IV enzyme” value at DPP IV enzyme was 00%. The half-life is more than 1440 min on DPP IV enzyme; 120 min in series [1]; 240 min in series [2] (simulated gi fluid, pH 1.5, read-out: half-life (t1/2) in simulated gastric fluid); more than 1440 min in series [3] (simulated gi fluid, pH 7.5, read-out: half-life (t1/2) in simulated intestinal fluid); more than 1440 min in series [4]. In series [1], the “% degradation in 24 h when incubated with liver microsomes” value is recorded as 84%. In addition, the “% degradation in 24 h when incubated with simulated gastric fluid” value in series [2] is given as 43%. The “% degradation in 24 h when incubated with simulated intestinal fluid” value in series [3] is 00%. Also, the “% degradation in 24 h when incubated with human plasma” value in series [4] worked out at 00%. Moreover, the “Insulin secretion” value in series [5] (0.1 nM test compd.) is 12.6 ± 0.25 pg/µg/h; in series [5] (1 nM test compd.) it was 15.3 ± 0.31 pg/µg/h; in series [5] (10 nM test compd.) it was 29.7 ± 0.48 pg/µg/h.

B1: Seq. ID. No. 121 (peptide)
peptide: VH[Aib]EGT[αMePhe(2-F)]T[αMeS][αMeD][Bip(2'-Et-4'-OMe)][αMeAPPA]
modifications: not fully specified (C-terminus); reading uncertain
For the molecule B1, in the series with human GLP-1 receptor, the “EC50, in-vitro human GLP-1 receptor agonistic activity (cAMP)” value was 8 nM.
